Measured values as given in ChEMBL document CHEMBL1157773, “Cytotoxic polyphenols from the marine-derived fungus Penicillium expansum” (J Nat Prod, 2010).

Tests used:
HL-60 = test: Cytotoxicity against human HL60 cells after 72 hrs by MTT assay; type: functional, cell-based
A549 = test: Cytotoxicity against human A549 cells after 72 hrs by SRB assay; type: functional, cell-based
[1] = Homo sapiens, HL-60, 72 h, read-out: IC50

Row | Structure (SMILES) | IC50 (HL-60; [1]) | IC50 (A549) | IC50 (HL-60; hl-60)
1 | Cc1cc(O)cc(Oc2cc(C)c(Cc3ccc([C@](C)(O)CCCC(C)C)c(O)c3)c(O)c2)c1 [EXPANSOL B] | 5.4 µM |  | 
2 | CC(=O)OC[C@@H](C)CCC[C@](C)(O)c1ccc(C(=O)O)cc1O [12-ACETOXYSYDONIC ACID] |  | Not Active | Not Active
3 | COC(C)(CCCC(C)C)c1ccc(Cc2c(C)cc(Oc3cc(C)cc(O)c3)cc2O)cc1O (single isomer, unassigned) [EXPANSOL A] | 15.7 µM |  | 
4 | C=C(C)CCC[C@](C)(O)c1ccc(C(=O)O)cc1O [11-DEHYDROSYDONIC ACID] |  | Not Active | Not Active
